From PMC8036666, “Biological and Physico-Chemical Characteristics of Arginine-Rich Peptide Gemini Surfactants with Lysine and Cystine Spacers” (International Journal of Molecular Sciences, 2021)

Assays:
[1] = test system: Pseudomonas aeruginosa ATCC 9027; parameters: method as in PMID 31581500; details: biofilm, previous study ref 65; cited from earlier work
[2] = test system: Staphylococcus aureus ATCC 25923; parameters: method as in PMID 31581500; details: planktonic culture, previous study ref 65; cited from earlier work
[3] = test system: E. coli ML-35 (ATCC 43827)
Description: (§1) The permeabilization of E. coli ML-35 (ATCC 43827) membranes was studied for selected compounds (A4, B2, C2, B7, and C7) to compare their activity and membrane disruption over time. […] For OM and IM permeabilization, CENTA and ONPG were used, respectively. The permeabilization of OM causes the release of periplasmic β-lactamase, which hydrolyzes CENTA’s β-lactam ring to form a chromophore, 2-nitro-5-thiobenzoate (TNB) anion, while the disruption of IM results in the release of β-galactosidase, which hydrolyzes ONPG into galactose and a chromophore, ortho-nitrophenol (ONP). Both products of enzymatic reaction absorb light at 405 nm.
The MICs were determined by the broth microdilution method according to the Clinical and Laboratory Standard Institute guidelines. For this purpose, initial inoculums of bacteria (5 × 10^5 CFU/mL) in MHB and yeasts (2 × 10^3 CFU/mL) in RPMI-1640 with 2% D-glucose were exposed to the ranging concentration of lipopeptides (0.5–256 μg/mL) and incubated at 37 °C for 18 h and 24 h, respectively. The experiments were conducted on 96-well microtiter polystyrene plates (Kartell, Noviglio, Italy). The growth was assessed visually after incubation, and the MIC was assumed as the lowest peptide concentration at which a noticeable growth of microorganisms was inhibited. All experiments were conducted in triplicate.
Inner and outer membranes permeabilization kinetics were evaluated using Escherichia coli ML-35 (ATCC 43827) and chromogenic substrates—CENTA (BioVision, Milpitas, CA, USA) and o-nitrophenyl-β-d-galactopyranoside (ONPG) (Sigma-Aldrich, Steinheim, Germany), as described previously. To examine OM permeabilization, CENTA was used as a β-lactamase substrate. In effect of OM permeabilization, the enzyme can hydrolyze CENTA’s β-lactam ring. The resulting color change (2-nitro-5-thiobenzoate anion, TNB^-) could be measured spectrophotometrically at 405 nm. The IM permeabilization was monitored with ONPG, which is a chromogenic β-galactosidase substrate. The product of this reaction ([…]) was measured spectrophotometrically at 405 nm (Multiskan GO Microplate Spectrophotometer, Thermo Fisher Scientific, Vantaa, Finland). […] Bacteria were incubated in lysogeny broth medium (LB; Biocorp, Warszawa, Poland) for 24 h at 37 °C. Subsequently, the cells were diluted in a fresh LB medium and incubated at 37 °C up to a mid-log phase (ca. 3 h). The culture was centrifuged (3 min, 1100× g) and rinsed twice with a PBS. The bacteria were resuspended in PBS up to a concentration of 5 × 10^6 CFU/mL. The final concentration of ONPG and CENTA was 1.5 mM and 0.15 mM, respectively. The ONPG/CENTA in PBS (Sigma-Aldrich, Steinheim, Germany) was used as a negative control. […] Readings were taken every 15 min for 3 h at 37 °C [125, 142, 143, 144]. Experiments were performed in triplicate on 96-well flat bottom microtiter polystyrene plates.

[4] = test system: E. coli ML-35 (ATCC 43827); test: Outer membrane (OM) permeabilization kinetics, CENTA; assay type: cell-based, Escherichia coli; details: over 3 h, 2 µg/mL (MIC)
Description: as §1
Inner and outer membranes permeabilization kinetics were evaluated using Escherichia coli ML-35 (ATCC 43827) and chromogenic substrates—CENTA (BioVision, Milpitas, CA, USA) and o-nitrophenyl-β-d-galactopyranoside (ONPG) (Sigma-Aldrich, Steinheim, Germany), as described previously. To examine OM permeabilization, CENTA was used as a β-lactamase substrate. In effect of OM permeabilization, the enzyme can hydrolyze CENTA’s β-lactam ring.

Substance: C12-KKC-NH2 [Compound C12-KKC-NH2]
- MBEC P. aeruginosa ATCC 9027 [1]: > 512

Substance: C14-KKC-NH2 [Compound C14-KKC-NH2]
- MIC S. aureus ATCC 25923 [2]: 32 µg/mL

Substance: polymyxin B [reference compound]
- MIC E. coli ML-35 (ATCC 43827) [3]: 2 µg/mL
- increase of absorbance at 405 nm, OM permeabilization [4]: ca. 0.25 AU
